Calls of active or inactive are those of the source.
Experiments:
J774.A1 [1] = experiment: Antiinflammatory activity against LPS/ATP-induced […] cells assessed as inhibition of ROS release at 20 uM incubated for 1 hrs followed by LPS stimulation for 12 hrs and ATP addition for 0.5 hrs by DCFH-DA staining based flow cytometry analysis; type: functional, cell-based; details: Mus musculus, time 13.5 hrs
[2] = target: NACHT, LRR and PYD domains-containing protein 3 (Homo sapiens) (UniProt Q96P20); experiment: (§1) Inhibition of NLRP3 inflammasome activation in PMA-differentiated and LPS/ATP-stimulated human THP-1 cells assessed as suppression of P2X7 expression at 5 to 20 uM incubated for 1 hrs followed by LPS stimulation for 12 hrs and ATP addition for 0.5 hrs by Western blot analysis; type: cell-based; details: dose 5-20 µM, time 13.5 hrs, DDE = dose-dependent effect
[3] = target: NACHT, LRR and PYD domains-containing protein 3 (Homo sapiens) (UniProt Q96P20); experiment: Inhibition of NLRP3 inflammasome activation in LPS/ATP-induced human THP-1 cells assessed as suppression of P2X7 expression at 5 to 20 uM preincubated for 1 hrs followed by LPS for 12 hrs and ATP 0.5 hrs in presence of A438079 by Western blot analysis; type: cell-based; details: dose 5-20 µM, time 13.5 hrs
[4] = target: T1, P2X purinoceptor 7 (Homo sapiens) (UniProt Q99572); experiment: Inhibition of pronase mediated degradation of P2X7 in human THP-1 cells assessed as increase in P2X7 expression at 20 to 80 uM by Western blot analysis; type: cell-based; details: dose 20-80 µM
T1 sequence (whole entry): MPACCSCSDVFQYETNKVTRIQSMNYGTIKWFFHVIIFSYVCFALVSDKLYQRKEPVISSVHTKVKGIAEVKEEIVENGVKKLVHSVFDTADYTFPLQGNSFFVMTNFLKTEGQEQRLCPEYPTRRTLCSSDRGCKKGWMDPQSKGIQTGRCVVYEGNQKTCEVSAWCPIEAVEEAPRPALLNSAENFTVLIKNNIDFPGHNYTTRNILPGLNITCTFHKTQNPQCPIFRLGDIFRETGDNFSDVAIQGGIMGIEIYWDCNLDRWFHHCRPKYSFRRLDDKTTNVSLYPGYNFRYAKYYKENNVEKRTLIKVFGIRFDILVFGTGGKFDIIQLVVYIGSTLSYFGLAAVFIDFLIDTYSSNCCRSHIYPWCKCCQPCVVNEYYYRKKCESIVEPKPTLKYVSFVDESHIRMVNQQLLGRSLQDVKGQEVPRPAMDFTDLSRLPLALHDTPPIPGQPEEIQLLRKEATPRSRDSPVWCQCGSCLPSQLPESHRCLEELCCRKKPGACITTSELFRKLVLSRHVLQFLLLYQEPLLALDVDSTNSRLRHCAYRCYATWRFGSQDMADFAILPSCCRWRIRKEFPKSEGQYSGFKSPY

[5] = target: NACHT, LRR and PYD domains-containing protein 3 (Homo sapiens) (UniProt Q96P20); experiment: Inhibition of NLRP3 inflammasome activation in PMA-differentiated and LPS/ATP-stimulated human THP-1 cells assessed as decrease in IL-1beta expression at 5 to 20 uM incubated for 1 hrs followed by LPS stimulation for 12 hrs and ATP addition for 0.5 hrs by western blot analysis; type: cell-based; details: dose 5-20 µM, time 13.5 hrs
[6] = target: NACHT, LRR and PYD domains-containing protein 3 (Homo sapiens) (UniProt Q96P20); experiment: Inhibition of NLRP3 inflammasome activation in PMA-differentiated and LPS/NIG-stimulated human THP-1 cells assessed as decrease of ASC oligomerization at 20 uM incubated for 1 hrs followed by LPS stimulation for 12 hrs and NIG addition for 2 hrs by DAPI staining based immunofluorescence analysis; type: cell-based; details: time 15.0 hrs
THP-1 [7] = experiment: Antiinflammatory activity against PMA-differentiated and LPS/NIG stimulated human THP-1 cells assessed as increase in cell viability at 5 to 20 uM incubated for 1 hrs followed by LPS stimulation for 12 hrs and NIG addition for 2 hrs by CCK8 assay; type: functional, cell-based; details: dose 5-20 µM, time 15.0 hrs
THP-1 [8] = experiment: Antiinflammatory activity against PMA-differentiated and LPS/MSU stimulated human THP-1 cells assessed as increase in cell viability at 5 to 20 uM incubated for 1 hrs followed by LPS stimulation for 12 hrs and MSU addition for 6 hrs by CCK8 assay; type: functional, cell-based; details: dose 5-20 µM, time 19.0 hrs
THP-1 [9] = experiment: Antiinflammatory activity against PMA-differentiated and LPS/ATP stimulated human THP-1 cells assessed as increase in cell viability at 5 to 20 uM incubated for 1 hrs followed by LPS stimulation for 12 hrs and ATP addition for 0.5 hrs by LDH assay; type: functional, cell-based; details: dose 5-20 µM, time 13.5 hrs
THP-1 [10] = experiment: Antiinflammatory activity against PMA-differentiated and LPS/NIG stimulated human THP-1 cells assessed as increase in cell viability at 5 to 20 uM incubated for 1 hrs followed by LPS stimulation for 12 hrs and NIG addition for 2 hrs by LDH assay; type: functional, cell-based; details: dose 5-20 µM, time 15.0 hrs
[11] = target: NACHT, LRR and PYD domains-containing protein 3 (Homo sapiens) (UniProt Q96P20); experiment: Inhibition of NLRP3 inflammasome activation in PMA-differentiated and LPS/NIG-stimulated human THP-1 cells assessed as decrease in caspase-1 expression at 20 uM incubated for 1 hrs followed by LPS stimulation for 12 hrs and NIG addition for 2 hrs by western blot analysis; type: cell-based; details: time 15.0 hrs
[12] = target: NACHT, LRR and PYD domains-containing protein 3 (Homo sapiens) (UniProt Q96P20); experiment: Inhibition of NLRP3 inflammasome activation in PMA-differentiated and LPS/MSU-stimulated human THP-1 cells assessed as decrease in caspase-1 expression at 20 uM incubated for 1 hrs followed by LPS stimulation for 12 hrs and MSU addition for 6 hrs by western blot analysis; type: cell-based; details: time 19.0 hrs
[13] = target: NACHT, LRR and PYD domains-containing protein 3 (Homo sapiens) (UniProt Q96P20); experiment: Inhibition of NLRP3 inflammasome activation in PMA-differentiated and LPS/NIG-stimulated human THP-1 cells assessed as decrease in pro-IL-1beta expression at 20 uM incubated for 1 hrs followed by LPS stimulation for 12 hrs and NIG addition for 2 hrs by western blot analysis; type: cell-based; details: time 15.0 hrs
[14] = target: NACHT, LRR and PYD domains-containing protein 3 (Homo sapiens) (UniProt Q96P20); experiment: Inhibition of NLRP3 inflammasome activation in PMA-differentiated and LPS/MSU-stimulated human THP-1 cells assessed as decrease in pro-IL-1beta expression at 20 uM incubated for 1 hrs followed by LPS stimulation for 12 hrs and MSU addition for 6 hrs by western blot analysis; type: cell-based; details: time 19.0 hrs
[15] = target: NACHT, LRR and PYD domains-containing protein 3 (Homo sapiens) (UniProt Q96P20); experiment: Inhibition of NLRP3 inflammasome activation in PMA-differentiated and LPS/NIG-stimulated human THP-1 cells assessed as decrease in IL-1beta expression at 20 uM incubated for 1 hrs followed by LPS stimulation for 12 hrs and NIG addition for 2 hrs by western blot analysis; type: cell-based; details: time 15.0 hrs
[16] = target: NACHT, LRR and PYD domains-containing protein 3 (Homo sapiens) (UniProt Q96P20); experiment: Inhibition of NLRP3 inflammasome activation in PMA-differentiated and LPS/MSU-stimulated human THP-1 cells assessed as decrease in IL-1beta expression at 20 uM incubated for 1 hrs followed by LPS stimulation for 12 hrs and MSU addition for 6 hrs by western blot analysis; type: cell-based; details: time 19.0 hrs
[17] = target: NACHT, LRR and PYD domains-containing protein 3 (Homo sapiens) (UniProt Q96P20); experiment: Inhibition of NLRP3 inflammasome activation in PMA-differentiated and LPS/NIG-stimulated human THP-1 cells assessed as decrease in pro-caspase-1 expression at 20 uM incubated for 1 hrs followed by LPS stimulation for 12 hrs and NIG addition for 2 hrs by western blot analysis; type: cell-based; details: time 15.0 hrs
[18] = target: NACHT, LRR and PYD domains-containing protein 3 (Homo sapiens) (UniProt Q96P20); experiment: Inhibition of NLRP3 inflammasome activation in PMA-differentiated and LPS/MSU-stimulated human THP-1 cells assessed as decrease in pro-caspase-1 expression at 20 uM incubated for 1 hrs followed by LPS stimulation for 12 hrs and MSU addition for 6 hrs by western blot analysis; type: cell-based; details: time 19.0 hrs
[19] = target: NACHT, LRR and PYD domains-containing protein 3 (Homo sapiens) (UniProt Q96P20); experiment: as §1, with “assessed as increase in potassium ion concentration” for “suppression of P2X7 expression”, “EPG-2 AM staining based confocal microscopy” for “Western blot analysis”; type: cell-based; details: dose 5-20 µM, time 13.5 hrs
J774.A1 [20] = experiment: Antiinflammatory activity against LPS/ATP-stimulated […] cells assessed as inhibition of ROS release at 20 uM incubated for 1 hrs followed by LPS stimulation for 12 hrs and ATP addition for 0.5 hrs by DCFH-DA staining based confocal microscopy; type: functional, cell-based; details: Mus musculus, time 13.5 hrs

Sequence of NACHT, LRR and PYD domains-containing protein 3 (Homo sapiens) (Q96P20 whole entry, the tested form may be a part): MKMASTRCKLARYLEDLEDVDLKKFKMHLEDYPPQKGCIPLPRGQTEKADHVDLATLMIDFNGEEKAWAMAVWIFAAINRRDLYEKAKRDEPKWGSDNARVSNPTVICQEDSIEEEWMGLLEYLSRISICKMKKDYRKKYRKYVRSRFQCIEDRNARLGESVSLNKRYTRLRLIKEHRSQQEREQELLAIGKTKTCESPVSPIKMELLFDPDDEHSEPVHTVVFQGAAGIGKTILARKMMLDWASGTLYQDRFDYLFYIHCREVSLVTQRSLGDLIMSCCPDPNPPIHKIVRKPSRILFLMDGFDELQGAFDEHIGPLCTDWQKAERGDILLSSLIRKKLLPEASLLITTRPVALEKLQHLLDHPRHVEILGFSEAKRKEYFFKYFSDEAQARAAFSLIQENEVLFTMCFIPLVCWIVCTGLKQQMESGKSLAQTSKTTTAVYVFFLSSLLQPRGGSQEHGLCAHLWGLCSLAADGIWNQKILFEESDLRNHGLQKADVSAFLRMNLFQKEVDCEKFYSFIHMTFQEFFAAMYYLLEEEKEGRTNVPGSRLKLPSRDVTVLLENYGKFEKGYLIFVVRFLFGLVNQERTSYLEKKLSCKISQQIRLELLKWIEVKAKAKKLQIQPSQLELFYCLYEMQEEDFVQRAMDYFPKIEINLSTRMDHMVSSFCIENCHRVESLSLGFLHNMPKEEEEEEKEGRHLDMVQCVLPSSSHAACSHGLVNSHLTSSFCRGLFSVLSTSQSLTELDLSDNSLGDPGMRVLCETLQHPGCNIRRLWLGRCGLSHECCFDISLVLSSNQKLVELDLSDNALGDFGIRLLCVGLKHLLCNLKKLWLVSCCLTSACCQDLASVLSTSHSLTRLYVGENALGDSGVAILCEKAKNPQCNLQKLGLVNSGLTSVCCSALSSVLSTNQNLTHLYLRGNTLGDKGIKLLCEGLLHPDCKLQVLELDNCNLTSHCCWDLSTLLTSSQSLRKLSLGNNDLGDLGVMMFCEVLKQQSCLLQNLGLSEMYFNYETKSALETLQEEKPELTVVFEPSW

CC1(C)C(=O)C=C[C@]2(C)[C@H]3CC[C@@]4(C)[C@H](c5ccoc5)OC(=O)[C@H]5O[C@]54[C@]3(C)[C@H](O)C[C@@H]12 [DEACETYLGEDUNIN]
active: Activity (J774.A1 [1]) | inhibition [2] Dde | inhibition [3] | inhibition [4] | inhibition [5] | inhibition [6] | Activity (THP-1 [7]) | Activity (THP-1 [8]) | Activity (THP-1 [9]) | Activity (THP-1 [10]) | inhibition [11] | inhibition [12] | inhibition [13] | inhibition [14] | inhibition [15] | inhibition [16] | inhibition [17] | inhibition [18] | inhibition [19] | Activity (J774.A1 [20])
